# Laboratory results published in patent publication US9139658B2, “Medicament for treatment cancer” (SUMITOMO DAINIPPON PHARMA CO., LTD., priority 2000, dated 2015).
# Structures can show the parent of a compound that is named as a salt. Where two headings read alike, the source gives them in different places.
# Columns and labels:
# [1] = system: Human breast cancer cell line BT-474; test: Evaluation of combination effects in vitro (WST-1 proliferation, Combination Index by Pegram method); format: cell-based; settings: for CI value (Combination Index) / D1 (concentration of test agent in combination required for fa): combination with Herceptin; for Df1 (concentration of test agent as single agent required for fa): fa 0.9, BT-474; for combination effect with Herceptin, overall evaluation by Combination Index: summary of Examples 1-3, BT-474
# Method: The effects of the combined use were evaluated by calculating a Combination Index (CI) following a method of Pegram et al. (M. Pegram et al., Oncogene, 18, 2241-2251 (1999)). Human breast cancer cell line BT-474 (a cell line in which HER2 is highly expressed) was obtained from ATCC (American Type Culture Collection). In a medium comprising equal amount of D-MEM (Dulbecco's Modified Eagle Medium) medium and F-12 (Nutrient Mixture F-12) medium which further contains 2.5 mM L-glutamine, 10% bovine fetal serum (FCS) and 2.5 μg/ml amphotericin B, human breast cancer cell line BT-474 was subcultured. The culture was carried out in an incubator with 5% CO2 at 37° C. This medium was also used in the following experiments. HerceptinTM was dissolved in a dissolution solution attached thereto to prepare a 21 mg/ml stock solution. Thereafter, the solution was used after 2 fold serial dilutions with the medium. […] Doxorubicin hydrochloride was obtained from Kyowa Hakko Kogyo Co., Ltd. A 2 mg/ml solution was prepared by adding 5 ml of sterile water to a 10 mg vial, and the solution was used. Human breast cancer cell line BT-474 on subculture were subjected to a trypsin treatment, suspended in the medium, and seeded on a 96-well plate. The seeding density was set to be 1×10^4 cells/0.1 ml/well. After seeding, cells were cultured overnight in an incubator with 5% CO2 at 37° C. (Day 0). […] The experiments were conducted with n=3 for the agent-treated group, and with n=6 for the non-treated (control) group. Until Day 4, culture was conducted in an incubator with 5% CO2 at 37° C. […] Thereafter, culture was conducted in an incubator with 5% CO2 at 37° C. for 2-4 hours. Absorbance of the culture was then measured with MICROPLATE READER Model 3550-UV (BioRad), and living cell number was measured. […] CI and inhibition rate of proliferation fa were calculated as described above.
# [2] = Cardiotoxicity test using monkey (combination with Herceptin); settings: rhesus monkey, intravenous, amrubicin hydrochloride at two times the dosage of doxorubicin hydrochloride
# Method: The administration of amrubicin hydrochloride at a dosage of two times of doxorubicin hydrochloride is carried out on the basis of therapeutic dosages of both agents.
# Into vein of a rhesus monkey, is administered doxorubicin at a dose of 2.92 mg/kg (35 mg/m^2), 7-8 times with three weeks intervals.
# Accordingly, the agent-administered groups are set to be as follows:
# 1) agent non-administered group
# 2) doxorubicin hydrochloride 2-4 mg/kg, iv, 8q3W
# 4) amrubicin hydrochloride 4-8 mg/kg, iv, 8q3W
# On 140-150 days post initiation of the administration, the animal is dissected, and histopathological diagnosis of the heart is carried out. Judging from the comparison of impairment of the myocardial cells, cardiotoxicity is evaluated.
# topoisomerase II = settings: at a concentration which leads to 50% inhibition of cell proliferation; cited from earlier work
# [3] = rabbit chronic experimental model, compared with doxorubicin; cited from earlier work
# [4] = metabolite obtained by reduction in vivo; cited from earlier work
# [5] = in vitro experiment, Pegram et al. 1999; cited from earlier work
# [6] = clinical use; cited from earlier work
# [7] = rhesus monkey, iv 2.92 mg/kg (35 mg/m^2), 7-8 times with three weeks intervals, 140-150 days post initiation; cited from earlier work
# [8] = compared with amrubicin and amrubicinol; cited from earlier work
# [9] = dosage ratio 2:1, fa 0.9, BT-474
# [10] = dosage ratio 4:1, fa 0.9, BT-474
# [11] = dosage ratio 8:1, fa 0.9, BT-474
# [12] = dosage ratio 2:1, fa 0.9, BT-474, CI<1 synergistic, CI=1 additive
# [13] = dosage ratio 40:1, fa 0.9, BT-474
Compound,"CI value (Combination Index) [1, 9]","D1 (concentration of test agent in combination required for fa) [1, 9] [µg/mL]","combination effect with Herceptin judged from CI value [1, 12]",Df1 (concentration of test agent as single agent required for fa) [1] [µg/mL],"combination effect with Herceptin, overall evaluation by Combination Index [1]",cardiotoxicity in combination with Herceptin [2],stabilization of cleavable complex via topoisomerase II (topoisomerase II),further results
CC(O)[C@]1(N)Cc2c(O)c3c(c(O)c2[C@@H](O[C@H]2C[C@H](O)[C@H](O)CO2)C1)C(=O)c1ccccc1C3=O.Cl (stereo partly drawn) [Amrubicinol hydrochloride],0.38,0.239,synergistic effect,0.671,marked synergistic effects,–,–,"CI value (Combination Index) [1, 10]: 0.33; D1 (concentration of test agent in combination required for fa) [1, 10]: 0.212 µg/mL; CI value (Combination Index) [1, 11]: 0.42; D1 (concentration of test agent in combination required for fa) [1, 11]: 0.279 µg/mL; combination effect with Herceptin judged from CI value ([1]; dosage ratio in the range of 2:1-8:1, fa 0.9, BT-474): synergistic effect"
"CC(=O)[C@]1(N)Cc2c(O)c3c(c(O)c2[C@@H](O[C@H]2C[C@H](O)[C@H](O)CO2)C1)C(=O)c1ccccc1C3=O [Amrubicin hydrochloride, (+)-(7S,9S)-9-acetyl-9-amino-7-[(2-deoxy-β-D-erythro-pentopyranosyl)oxy]-7,8,9,10-tetrahydro-6,11-dihydroxy-5,12-naphthacenedione]",–,–,–,7.542,marked synergistic effects,cardiotoxicity is not presented,–,"CI value (Combination Index) [1, 13]: 0.17; D1 (concentration of test agent in combination required for fa) [1, 13]: 1.267 µg/mL; combination effect with Herceptin judged from CI value [1, 13]: synergistic effect"
"COc1cccc2c1C(=O)c1c(O)c3c(c(O)c1C2=O)C[C@@](O)(C(=O)CO)C[C@@H]3O[C@H]1C[C@H](N)[C@H](O)[C@H](C)O1 [Doxorubicin hydrochloride, reference compound]",0.92,0.373,additive effect,0.434,–,cardiotoxicity is strongly presented,–,–
"CC(=O)[C@]1(N)Cc2c(O)c3c(c(O)c2[C@@H](O[C@H]2C[C@H](O)[C@H](O)CO2)C1)C(=O)c1ccccc1C3=O [amrubicin, (+)-(7S,9S)-9-acetyl-9-amino-7-[(2-deoxy-β-D-erythro-pentopyranosyl)oxy]-7,8,9,10-tetrahydro-6,11-dihydroxy-5,12-naphthacenedione]",–,–,–,–,–,–,sufficiently stabilize a cleavable complex,cardiotoxicity [3]: far less than that of doxorubicin
CC(O)[C@]1(N)Cc2c(O)c3c(c(O)c2[C@@H](O[C@H]2C[C@H](O)[C@H](O)CO2)C1)C(=O)c1ccccc1C3=O (stereo partly drawn) [amrubicinol],–,–,–,–,–,–,sufficiently stabilize a cleavable complex,anti-cancer activity of metabolite compared with amrubicin [4]: stronger anti-cancer activity
COc1cccc2c1C(=O)c1c(O)c3c(c(O)c1C2=O)C[C@@](O)(C(=O)CO)C[C@@H]3O[C@H]1C[C@H](N)[C@H](O)[C@H](C)O1 [doxorubicin],–,–,–,–,–,–,does not stabilize the cleavable complex,combination effect with Herceptin [5]: additive effects; cardiotoxicity in combination with Herceptin [6]: cardiotoxicity is developed at a high frequency; histopathological observation of the heart [7]: vacuolation of myocardial cells; intercalation activity [8]: about ten times stronger than those of amrubicin and amrubicinol
